{
  "source": "ChEMBL document CHEMBL2380296",
  "about": "“Structure-based design and optimization of 2-aminothiazole-4-carboxamide as a new class of CHK1 inhibitors” (Bioorg Med Chem Lett, 2013)",
  "key": {"[1]": {"target": "Calcium/calmodulin-dependent protein kinase type IV (Homo sapiens, UniProt Q16566)", "sequence (Q16566 whole entry)": "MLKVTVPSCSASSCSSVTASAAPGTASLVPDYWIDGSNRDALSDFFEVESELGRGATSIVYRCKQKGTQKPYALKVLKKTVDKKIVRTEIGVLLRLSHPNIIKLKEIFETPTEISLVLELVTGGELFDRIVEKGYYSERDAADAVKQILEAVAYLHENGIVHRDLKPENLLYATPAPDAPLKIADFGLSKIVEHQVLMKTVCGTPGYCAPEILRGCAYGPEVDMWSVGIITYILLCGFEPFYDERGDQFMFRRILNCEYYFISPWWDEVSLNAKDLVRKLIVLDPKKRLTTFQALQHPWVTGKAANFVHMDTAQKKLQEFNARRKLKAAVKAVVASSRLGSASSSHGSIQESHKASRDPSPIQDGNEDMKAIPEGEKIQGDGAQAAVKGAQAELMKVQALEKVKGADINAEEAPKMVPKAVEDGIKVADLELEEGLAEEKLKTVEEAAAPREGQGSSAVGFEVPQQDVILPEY", "assay": "Inhibition of human CAMK4"}, "[2]": {"assay": "Plasma concentration in rat at 10 mg/kg, po measured at 24 hrs", "assay_type": "ADME, organism-based", "set-up": "dose 10 mg/kg, route oral"}, "[3]": {"target": "RAC-alpha serine/threonine-protein kinase (Homo sapiens, UniProt P31749)", "sequence (P31749 whole entry)": "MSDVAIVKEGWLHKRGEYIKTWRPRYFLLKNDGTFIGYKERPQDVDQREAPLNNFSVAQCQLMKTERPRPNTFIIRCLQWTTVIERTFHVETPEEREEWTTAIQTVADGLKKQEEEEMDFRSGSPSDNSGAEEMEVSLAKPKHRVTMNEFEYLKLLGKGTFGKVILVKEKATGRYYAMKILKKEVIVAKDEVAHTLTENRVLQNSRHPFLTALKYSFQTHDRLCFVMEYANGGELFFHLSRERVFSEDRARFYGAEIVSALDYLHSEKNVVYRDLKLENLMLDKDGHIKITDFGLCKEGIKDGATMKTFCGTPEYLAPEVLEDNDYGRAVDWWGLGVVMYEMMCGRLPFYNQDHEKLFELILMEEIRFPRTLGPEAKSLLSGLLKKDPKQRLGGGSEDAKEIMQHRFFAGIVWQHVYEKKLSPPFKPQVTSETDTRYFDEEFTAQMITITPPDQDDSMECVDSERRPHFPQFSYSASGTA", "assay": "Inhibition of human AKT1"}, "hERG (KCNH2)": {"target": "hERG (KCNH2) (Homo sapiens, UniProt Q12809)", "assay": "Inhibition of human ERG at 1 uM after 5 mins by voltage clamp assay relative to control"}, "[4]": {"target": "Cannabinoid receptor 1 (Homo sapiens) (UniProt P21554)", "assay": "Inhibition of CB1 receptor (unknown origin) at 20 ug/mL relative to control"}, "[5]": {"target": "Muscarinic acetylcholine receptor M4 (Homo sapiens) (UniProt P08173)", "assay": "Inhibition of muscarinic M4 receptor (unknown origin) at 2 ug/mL relative to control"}, "[6]": {"target": "Muscarinic acetylcholine receptor M1 (Homo sapiens) (UniProt P11229)", "sequence (P11229 whole entry)": "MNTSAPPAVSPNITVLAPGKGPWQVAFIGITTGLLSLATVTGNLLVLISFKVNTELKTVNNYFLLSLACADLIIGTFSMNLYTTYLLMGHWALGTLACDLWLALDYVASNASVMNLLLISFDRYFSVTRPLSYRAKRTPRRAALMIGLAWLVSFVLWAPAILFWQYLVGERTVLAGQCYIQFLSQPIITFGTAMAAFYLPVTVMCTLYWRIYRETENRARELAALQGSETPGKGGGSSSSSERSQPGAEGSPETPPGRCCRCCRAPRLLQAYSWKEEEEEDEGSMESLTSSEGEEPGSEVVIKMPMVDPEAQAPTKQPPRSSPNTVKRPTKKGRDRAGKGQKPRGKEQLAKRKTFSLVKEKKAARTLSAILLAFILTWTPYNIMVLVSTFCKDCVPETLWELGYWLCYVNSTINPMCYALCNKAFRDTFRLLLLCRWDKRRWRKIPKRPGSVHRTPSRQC", "assay": "Inhibition of muscarinic M1 receptor (unknown origin) at 2 ug/mL relative to control"}, "[7]": {"target": "Cannabinoid receptor 2 (Homo sapiens) (UniProt P34972)", "sequence (P34972 whole entry)": "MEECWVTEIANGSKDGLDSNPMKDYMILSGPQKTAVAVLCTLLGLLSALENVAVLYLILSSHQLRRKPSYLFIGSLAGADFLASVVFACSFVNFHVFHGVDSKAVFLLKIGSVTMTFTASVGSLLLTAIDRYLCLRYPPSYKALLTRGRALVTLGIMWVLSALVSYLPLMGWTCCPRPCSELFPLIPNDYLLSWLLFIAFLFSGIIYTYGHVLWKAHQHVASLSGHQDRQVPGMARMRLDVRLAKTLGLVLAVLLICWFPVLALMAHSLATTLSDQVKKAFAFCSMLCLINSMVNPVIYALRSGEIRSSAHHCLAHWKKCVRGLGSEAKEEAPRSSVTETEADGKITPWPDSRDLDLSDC", "assay": "Inhibition of CB2 receptor (unknown origin) at 20 ug/mL relative to control"}, "[8]": {"target": "Alpha-2C adrenergic receptor (Homo sapiens) (UniProt P18825)", "sequence (P18825 whole entry)": "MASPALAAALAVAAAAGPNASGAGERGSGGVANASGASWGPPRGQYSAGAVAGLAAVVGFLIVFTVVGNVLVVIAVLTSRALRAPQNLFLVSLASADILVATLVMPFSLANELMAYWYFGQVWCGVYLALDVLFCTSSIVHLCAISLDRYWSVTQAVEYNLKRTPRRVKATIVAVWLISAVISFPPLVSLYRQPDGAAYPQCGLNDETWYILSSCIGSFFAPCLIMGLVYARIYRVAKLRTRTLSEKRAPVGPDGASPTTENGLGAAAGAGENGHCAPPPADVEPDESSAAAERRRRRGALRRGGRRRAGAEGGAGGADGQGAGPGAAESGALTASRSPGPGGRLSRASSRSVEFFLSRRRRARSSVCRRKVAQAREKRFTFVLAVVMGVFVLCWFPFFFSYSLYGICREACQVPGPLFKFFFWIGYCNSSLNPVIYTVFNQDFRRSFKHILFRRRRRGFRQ", "assay": "Inhibition of adrenergic alpha-2C receptor (unknown origin) at 1 ug/mL relative to control"}, "[9]": {"target": "Alpha-2B adrenergic receptor (Homo sapiens) (UniProt P18089)", "sequence (P18089 whole entry)": "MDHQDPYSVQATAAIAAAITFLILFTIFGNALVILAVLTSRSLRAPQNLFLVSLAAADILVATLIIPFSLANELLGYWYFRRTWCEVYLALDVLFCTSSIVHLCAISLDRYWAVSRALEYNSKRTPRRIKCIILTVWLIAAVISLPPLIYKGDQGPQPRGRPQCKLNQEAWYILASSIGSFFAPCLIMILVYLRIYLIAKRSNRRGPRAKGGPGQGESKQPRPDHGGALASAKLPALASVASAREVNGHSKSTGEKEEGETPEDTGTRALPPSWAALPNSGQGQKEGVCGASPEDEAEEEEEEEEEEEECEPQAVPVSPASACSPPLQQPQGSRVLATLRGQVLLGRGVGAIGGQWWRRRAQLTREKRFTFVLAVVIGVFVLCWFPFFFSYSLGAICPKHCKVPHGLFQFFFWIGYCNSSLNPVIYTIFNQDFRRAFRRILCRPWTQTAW", "assay": "Inhibition of adrenergic alpha-2B receptor (unknown origin) at 1 ug/mL relative to control"}, "[10]": {"target": "Adenosine receptor A2a (Homo sapiens) (UniProt P29274)", "assay": "Inhibition of adenosine A2A receptor (unknown origin) at 2 ug/mL relative to control"}, "[11]": {"target": "Adenosine receptor A1 (Homo sapiens) (UniProt P30542)", "sequence (P30542 whole entry)": "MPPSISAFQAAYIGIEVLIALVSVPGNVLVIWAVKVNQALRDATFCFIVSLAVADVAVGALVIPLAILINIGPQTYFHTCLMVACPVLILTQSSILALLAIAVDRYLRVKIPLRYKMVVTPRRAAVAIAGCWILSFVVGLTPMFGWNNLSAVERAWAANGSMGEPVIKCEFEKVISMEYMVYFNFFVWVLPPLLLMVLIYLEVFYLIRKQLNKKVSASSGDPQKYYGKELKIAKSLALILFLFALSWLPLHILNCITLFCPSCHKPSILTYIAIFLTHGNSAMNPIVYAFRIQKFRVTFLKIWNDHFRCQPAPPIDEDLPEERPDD", "assay": "Inhibition of adenosine A1 receptor (unknown origin) at 2 ug/mL relative to control"}, "[12]": {"target": "Ribosomal protein S6 kinase alpha-3 (Homo sapiens, UniProt P51812)", "sequence (P51812 whole entry)": "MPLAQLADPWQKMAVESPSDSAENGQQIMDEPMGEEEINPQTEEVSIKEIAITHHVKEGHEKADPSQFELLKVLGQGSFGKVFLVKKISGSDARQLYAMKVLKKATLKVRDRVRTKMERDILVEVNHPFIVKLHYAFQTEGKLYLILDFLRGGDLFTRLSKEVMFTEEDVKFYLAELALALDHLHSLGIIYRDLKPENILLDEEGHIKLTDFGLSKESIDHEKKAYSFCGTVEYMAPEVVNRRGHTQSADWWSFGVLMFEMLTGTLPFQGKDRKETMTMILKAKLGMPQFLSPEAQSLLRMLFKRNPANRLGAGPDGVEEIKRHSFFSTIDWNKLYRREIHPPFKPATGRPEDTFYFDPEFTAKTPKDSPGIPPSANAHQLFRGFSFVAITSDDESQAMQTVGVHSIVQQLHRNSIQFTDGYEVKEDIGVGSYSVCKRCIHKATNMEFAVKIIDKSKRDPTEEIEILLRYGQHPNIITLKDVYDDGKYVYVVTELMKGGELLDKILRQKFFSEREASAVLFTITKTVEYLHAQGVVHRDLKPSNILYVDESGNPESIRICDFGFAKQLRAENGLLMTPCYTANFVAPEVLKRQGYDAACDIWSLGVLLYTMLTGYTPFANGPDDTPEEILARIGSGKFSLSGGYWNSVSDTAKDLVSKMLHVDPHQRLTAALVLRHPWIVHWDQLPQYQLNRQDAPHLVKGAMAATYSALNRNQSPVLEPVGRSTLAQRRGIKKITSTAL", "assay": "Inhibition of human RSK2"}, "[13]": {"target": "Serine/threonine-protein kinase Nek2 (Homo sapiens, UniProt P51955)", "assay": "Inhibition of human NEK2"}, "[14]": {"target": "Hepatocyte growth factor receptor (Homo sapiens, UniProt P08581)", "assay": "Inhibition of human MET"}, "[15]": {"target": "Tyrosine-protein kinase JAK2 (Homo sapiens, UniProt O60674)", "sequence (O60674 whole entry)": "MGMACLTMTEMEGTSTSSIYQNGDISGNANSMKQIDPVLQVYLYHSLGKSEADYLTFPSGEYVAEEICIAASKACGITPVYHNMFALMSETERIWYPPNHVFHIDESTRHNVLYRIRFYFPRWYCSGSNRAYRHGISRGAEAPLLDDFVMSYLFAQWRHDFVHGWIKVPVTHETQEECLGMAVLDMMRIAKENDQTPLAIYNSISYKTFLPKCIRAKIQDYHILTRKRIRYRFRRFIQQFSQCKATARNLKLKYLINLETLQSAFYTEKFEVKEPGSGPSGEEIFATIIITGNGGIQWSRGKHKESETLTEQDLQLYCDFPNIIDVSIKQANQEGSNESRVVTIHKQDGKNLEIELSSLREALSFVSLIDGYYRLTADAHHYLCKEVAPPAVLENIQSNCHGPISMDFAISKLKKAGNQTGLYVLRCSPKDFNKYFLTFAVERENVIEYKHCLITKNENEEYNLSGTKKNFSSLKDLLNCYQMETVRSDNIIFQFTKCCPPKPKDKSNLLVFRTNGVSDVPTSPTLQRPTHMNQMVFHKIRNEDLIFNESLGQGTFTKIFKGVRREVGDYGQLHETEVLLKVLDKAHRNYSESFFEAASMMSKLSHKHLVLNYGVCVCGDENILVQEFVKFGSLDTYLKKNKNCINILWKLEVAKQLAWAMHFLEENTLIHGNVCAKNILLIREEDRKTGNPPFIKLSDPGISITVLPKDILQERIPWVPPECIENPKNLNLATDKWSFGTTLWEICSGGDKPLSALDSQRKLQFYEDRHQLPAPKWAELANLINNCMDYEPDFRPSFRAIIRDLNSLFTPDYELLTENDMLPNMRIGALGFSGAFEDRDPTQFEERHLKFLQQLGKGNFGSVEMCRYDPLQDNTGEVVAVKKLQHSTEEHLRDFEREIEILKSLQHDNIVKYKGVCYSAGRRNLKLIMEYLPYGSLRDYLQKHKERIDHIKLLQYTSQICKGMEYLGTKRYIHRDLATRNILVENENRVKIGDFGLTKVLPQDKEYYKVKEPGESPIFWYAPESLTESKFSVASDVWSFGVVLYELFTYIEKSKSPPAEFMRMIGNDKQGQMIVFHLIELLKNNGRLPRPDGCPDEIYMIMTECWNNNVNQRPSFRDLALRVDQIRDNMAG", "assay": "Inhibition of human JAK2"}, "[16]": {"target": "Insulin-like growth factor 1 receptor (Homo sapiens, UniProt P08069)", "assay": "Inhibition of human IGF1R"}},
  "data": [
    {"smiles": "COc1ccc2c(c1)C(=O)N(c1nc(C(=O)Nc3cnccc3N3CCNCC3)cs1)C2", "values": [
      {"measurement": "IC50", "setting": "[1]", "result": 26, "unit": "µM"},
      {"measurement": "concentration at 24 h", "setting": "[2]", "result": 6.29, "unit": "ng/mL"},
      {"measurement": "IC50", "setting": "[3]", "result": 4.8, "unit": "µM"},
      {"measurement": "inhibition at 5 min, 1 µM", "setting": "hERG (KCNH2)", "result": 82, "unit": "%"},
      {"measurement": "inhibition", "setting": "[4]", "result": 22.6, "unit": "%"},
      {"measurement": "inhibition", "setting": "[5]", "result": 14.1, "unit": "%"},
      {"measurement": "inhibition", "setting": "[6]", "result": 43.8, "unit": "%"},
      {"measurement": "inhibition", "setting": "[7]", "result": 25.1, "unit": "%"},
      {"measurement": "inhibition", "setting": "[8]", "result": 13.8, "unit": "%"},
      {"measurement": "inhibition", "setting": "[9]", "result": 4.2, "unit": "%"},
      {"measurement": "inhibition", "setting": "[10]", "result": -5.8, "unit": "%"},
      {"measurement": "inhibition", "setting": "[11]", "result": -3.2, "unit": "%"},
      {"measurement": "IC50", "setting": "[12]", "result": 1.3, "unit": "µM"},
      {"measurement": "IC50", "setting": "[13]", "result": 9.5, "unit": "µM"},
      {"measurement": "IC50", "setting": "[14]", "result": "> 30", "unit": "µM"},
      {"measurement": "IC50", "setting": "[15]", "result": 21, "unit": "µM"},
      {"measurement": "IC50", "setting": "[16]", "result": 30, "unit": "µM"}
    ]}
  ]
}
